Test system: mouse lymphoma models (DLBCL, MCL, Burkitt lymphoma, Hodgkin lymphoma, undifferentiated lymphoma)
Experiment: Growth inhibition study in tumor-bearing mice, various mouse lymphoma models
Format: in vivo
Settings: doses as in treatment table (Compound 1 100 mg/kg BID, rituximab 20 mg/kg BIW, CHOP), FIGS. 1-3
From the text: See e.g., FIGS. 1-3, which show complete regression of certain diffuse large B-cell lymphoma (DLBCL), mantle cell lymphoma (MCL), Burkitt lymphoma, Hodgkin lymphoma, and undifferentiated lymphoma mouse models following treatment with Compound 1 and R-CHOP.
Growth Inhibition Study of Compound 1 with R-CHOP in Tumor-Bearing Mice.
Mice were implanted subcutaneously with 5×10^6 to 2×10^7 cells as required for each model. Tumor volumes were monitored twice a week until tumors reach approximately 150 mm^3. Once tumor burden was at this level, mice were randomized and treated with the following.
At the study end, tumor tissue, and plasma were collected 1 hr. post final dose of Compound 1. Treatment was well tolerated. FIGS. 1-3 show the percent change in tumor volume for the mouse models treated. […] A similar result was observed across the multiple subsets of lymphoma tested.

For rituximab, the “tumor response (percent change in tumor volume)” value was “tumor growth continued”.

— patent US20230285365A1, “USE OF A DHODH INHIBITOR COMPOUND IN COMBINATION CANCER THERAPY” (Servier Pharmaceuticals LLC, priority 2020, published 2023)
